Measured values: US20250325676A1, “CAMPTOTHECIN PRODRUG AND PHARMACEUTICAL COMPOSITION THEREOF” (TIANJIN HEMAY ONCOLOGY PHARMACEUTICAL CO., LTD, priority 2022, published 2025)
Read-outs that look alike come from different tables or passages of the source.

Assays:
[1] = system: HCT116; assay: In vitro inhibition of human tumor cells, HCT116, MTT method; format: cell-based
[2] = system: SW620; assay: In vitro inhibition of human tumor cells, SW620, SRB method; format: cell-based
Text: (§1) The cells were allowed to adhere overnight.
(§2) Trichloroacetic acid was removed. […] Excess SRB was removed.
(§3) The DMSO concentration was 0.1%.

[3] = system: LoVo; assay: In vitro inhibition of human tumor cells, LoVo, SRB method; format: cell-based
Text: as §1, §2, §3

[4] = system: NCI-N87; assay: In vitro inhibition of human tumor cells, NCI-N87, MTT method; format: cell-based
[5] = system: BxPC-3; assay: In vitro inhibition of human tumor cells, BxPC-3, MTT method; format: cell-based
[6] = system: NCI-H460; assay: In vitro inhibition of human tumor cells, NCI-H460, MTT method; format: cell-based
[7] = system: Fadu; assay: In vitro inhibition of human tumor cells, Fadu, MTT method; format: cell-based
[8] = system: human colon cancer HCT116; assay: Growth of human colon cancer HCT116 in allogeneic transplantation model; format: in vivo, nude mice
Description: (§4) When the tumor volume of the allogeneic transplantation was about 100 to 300 mm^3 and remained stable, the experimental animals were randomly divided into groups according to the size of the tumor volume (day 0) by using a remainder method. The tumor volume was measured 2 to 3 times a week. At the end of the dosage period, the experimental animals were sacrificed. The subcutaneous tumors were peeled and weighed. The anti-tumor activity of the drug against the model was evaluated based on tumor volume and tumor weight-related data.
(§5) The calculation formula of the tumor volume was: Volume=0.5×long diameter×short diameter×short diameter.
(§6) V0 was the resulting tumor volume measured at the time of dosing in groups (i.e., d0) and Vt was the tumor volume at each measurement.
(§7) TRTV was the average RTV of the subject, and CRTV was the average RTV of the model control group.
(§8) Wn: average body weight of each group of experimental animals on day n, and W0: average body weight of each group of experimental animals on day 0.

[9] = system: human pancreatic cancer BxPC-3; assay: Growth of human pancreatic cancer BxPC-3 in allogeneic transplantation model; format: in vivo, nude mice; details: 25 mg/kg i.v. qw × 2, BxPC-3 model
Description: as §4, §5, §6
(§9) T was the subject and C was the model control.
as §7, §8
(§10) In the large tumor efficacy test after the second grouping of the G5 group, since the number of samples in each group of G6.1 and G6.4 was less than three, the relevant data of the large tumor efficacy test were statistically analyzed among groups using the T-Test method.

[10] = system: human gastric cancer NCI-N87; assay: Growth of human gastric cancer NCI-N87 in allogeneic transplantation model; format: in vivo, nude mice
Description: The tumor volume was measured 2 to 3 times per week. […] The subcutaneous tumors were peeled and weighed.
The calculation formula of the tumor volume: Volume=0.5×long diameter×short diameter×short diameter.

[11] = system: human colon cancer HCT116; details: 30 mg/kg i.v. qw × 2
Text: When the tumor volume was more than 600 mm^3 and stable growth was maintained, the experimental animals were randomly divided by the remainder method and administered according to the size of the tumor volume. […] The subcutaneous tumors were stripped and weighed.
T was the subject and C is the model control.
Tumor volume growth was observed on a regular basis after completion of dosing.

[12] = system: human colon cancer LoVo; details: 30 mg/kg i.v. qw × 2, LoVo model
Description: An allogeneic transplantation model of human colon cancer LoVo was established in nude mice subcutaneously using a tumor block inoculation method. When the tumor volume of the allogeneic transplantation was about 100 to 300 mm^3 and kept stable, the experimental animals were randomly divided into groups according to the tumor volume (day 0) by using a remainder method. The tumor volume was measured 2 to 3 times a week. At the end of the dosage period, the experimental animals were sacrificed. The subcutaneous tumors were peeled and weighed. The anti-tumor activity of the drug against the model was evaluated based on tumor volume and tumor weight-related data.
as §5
V0 was the resulting tumor volume measured at the time of dosing in groups (i.e., d0) and Vt is the tumor volume at each measurement.
as §9
TRTV was the average RTV of the subject and CRTV was the average RTV of the model control group.
as §8

[13] = system: human colon cancer SW620; details: 30 mg/kg i.v. qw × 2, SW620 model
Description: An allogeneic transplantation model of human colon cancer SW620 was established in nude mice subcutaneously using a tumor block inoculation method. When the tumor volume of the allogeneic transplantation was about 100 to 300 mm^3 and remained stable, the experimental animals were randomly divided into groups according to the size of the tumor volume (day 0) by using a remainder method. The tumor volume was measured 2 to 3 times a week. At the end of the dosage period, the experimental animals were sacrificed. The subcutaneous tumors were peeled and weighed. The anti-tumor activity of the drug against the model was evaluated based on tumor volume and tumor weight-related data.
as §5, §6
TRTV was the average value of RTV of the subject, and CRTV was the average RTV of the model control group.
as §8

[14] = system: human pancreatic cancer BxPC-3; details: 30 mg/kg i.v. qw × 2
Description: as §4, §5, §6, §9, §7, §8, §10

[15] = system: human small cell lung cancer NCI-H446; details: 20 mg/kg i.v. qw × 2, NCI-H446 model
Description: An allogeneic transplantation model of human small cell lung cancer NCI-H446 was established in nude mice subcutaneously using a tumor block inoculation method. When the tumor volume of the allogeneic transplantation was about 100 to 300 mm^3 and remained stable, the experimental animals were randomly divided into groups according to the size of the tumor volume (day 0, i.e., d0) using a remainder method. The tumor volume was measured 2 to 3 times a week. At the end of the dosage period, the experimental animals were sacrificed. The subcutaneous tumors were peeled and weighed. The anti-tumor activity of the drug against the model was evaluated based on tumor volume and tumor weight-related data.
as §5, §6, §9, §7, §8

[16] = system: A375; assay: In vitro inhibition of human tumor cells, A375, SRB method
Description: (§11) 1.1.2 Cell culture method: Cells were cultured in complete medium, 37° C., 5% CO2, saturated humidity to log growth phase (adherent cells generally attended to complete fusion), and cells were collected for subsequent experiments (adherent cells were first digested with trypsin/ethylene diamine tetraacetic acid (EDTA) to remove adherent).
(§12) 1.1.3 96-well cell culture plates (hereinafter referred to as 96-well plates) were inoculated with a certain number of cells (see Table 1 for details). The cells were allowed to adhere overnight. […] Finally, the total amount of cell protein in the assay wells was determined by the SRB method, or the cell viability was determined by the MTT method:
(§13) The culture medium was aspirated from the wells and the cells were fixed for 1 hour or more by adding 10% trichloroacetic acid. Trichloroacetic acid was removed. The resultant was washed with H2O and stained with 0.4% SRB for 15 to 30 minutes. Excess SRB was removed. The resultant was washed with 1% acetic acid. The protein-bound SRB was dissolved by adding 10 mM of 100 μl Tris (trishydroxymethylaminomethane). Tests were carried out at the wavelength of 570 nm.
(§14) 1.1.4 dilution and addition of β-glucuronidase: 1 to 2 mg of β-glucuronidase was weighed and dissolved in PBS to give a 2 mg/ml of stock solution. […] 80 μl of enzyme working solution was added to the enzyme-containing assay wells. The amount of β-glucuronidase was 1 μg/wells. No enzyme-containing assay wells were added to the 80 μl of complete medium.
(§15) The assay wells were charged with 20 μl of 10× compound working solution. The final volume was 200 μl per well. The DMSO concentration was 0.1%.
(§16) 1.1.6 Compound inhibition activity calculation: The test included a compound test group, a compound-free positive solvent control group (PC) and a compound-free negative solvent control group (NC). […] The average inhibition rate and the standard deviation (SD) were obtained from the repeated test wells. The average inhibition rate was plotted on the basis of the compound concentration as an abscissa and distributed in the form of logarithms. The curve was fitted to the Logistic 4 parameter equation. […] The test was generally repeated to obtain 3 valid results.

[17] = system: 22RV1; assay: In vitro inhibition of human tumor cells, 22RV1, SRB method
Description: as §11, §12, §13, §14, §15, §16

[18] = system: BEL-7404; assay: In vitro inhibition of human tumor cells, BEL-7404, SRB method
Description: as §11, §12, §13, §14, §15, §16

[19] = system: MDA-MB-468; assay: In vitro inhibition of human tumor cells, MDA-MB-468, SRB method
Description: as §11, §12, §13, §14, §15, §16

[20] = HCT116 large tumor after irinotecan
[21] = BxPC-3 large tumors after irinotecan

CCc1c2c(nc3ccc(OCc4ccc(O[C@@H]5O[C@H](C(=O)[O-])[C@@H](O)[C@H](O)[C@H]5O)cc4OCc4cn(CCCCCC(=O)Nc5ccc(-c6ccc(/N=N/c7ccc8c(S(=O)(=O)[O-])cc(S(=O)(=O)[O-])c(N)c8c7O)c(C)c6)cc5C)nn4)cc13)-c1cc3c(c(=O)n1C2)COC(=O)[C@]3(O)CC.[Na+].[Na+].[Na+] [Example 7, (2S,3S,4S,5R,6S)-6-(3-((1-(6-((4′-((E)-(8-amino-1-hydroxy-5,7-disulfonicnaphthalen-2-yl)diazenyl)-3,3′-dimethyl-[1,1′-biphenyl]-4-yl)amino)-6-oxohexyl)-1H-1,2,3-triazol-4-yl)methoxy)-4-((((S)-4,11-diethyl-4-hydroxy-3,14-dioxy-3,4,12,14-tetrahydro-1H-pyrano[3′,4′:6,7]indolazino[1,2-b]quinolin-9-yl)oxy)methyl)phenoxy)-3,4,5-trihydroxytetrahydro-2H-pyran-2-carboxylate trisodium]
IC50 ([1]; Adding βGU (β-glucuronidase)): 3.9 nM
IC50 ([1]; No βGU (direct effects of compound on cells)): 147 nM
IC50 ([2]; Adding βGU): 6.9 nM
IC50 ([2]; No βGU): 306 nM
IC50 ([3]; Adding βGU): 19 nM
IC50 ([3]; No βGU): 253 nM
IC50 ([4]; Adding βGU): 24 nM
IC50 ([4]; No βGU): 1140 nM
IC50 ([5]; Adding βGU): 27 nM
IC50 ([5]; No βGU): 1110 nM
IC50 ([6]; Adding βGU): 14 nM
IC50 ([6]; No βGU): 219 nM
IC50 ([7]; Adding βGU): 8.5 nM
IC50 ([7]; No βGU): 242 nM
T/C (%) ([8]; 10 mg/kg i.v. qw × 2): 13.3%
Tumor inhibition rate (%) ([8]; 10 mg/kg i.v. qw × 2): 90.0%
Final body weight change (%) ([8]; 10 mg/kg i.v. qw × 2, nude mouse): −12.8%
Relative volume RTV (X ± S.D.) [9]: 0.23 ± 0.08
T/C (%) [9]: 4.9%
Tumor inhibition rate (%) [9]: 96.7%
Tumor weight (g, X ± S.D.) [9]: 0.055 ± 0.037 g
Final body weight change (%) ([9]; nude mouse): 2.9%
Relative volume RTV (X ± S.D.) ([10]; 20 mg/kg i.v. qw × 2): 0.69 ± 0.15
T/C (%) ([10]; 20 mg/kg i.v. qw × 2): 13.6%
Tumor inhibition rate (%) ([10]; 20 mg/kg i.v. qw × 2): 94.2%
Tumor weight (g, X ± S.D.) ([10]; 20 mg/kg i.v. qw × 2): 0.069 ± 0.009 g
Final body weight change (%) ([10]; 20 mg/kg i.v. qw × 2, nude mouse): 13.6%
Relative volume RTV (X ± S.D.) [11, 20]: 1.10 ± 0.16
T/C (%) [11, 20]: 29.6%
Tumor inhibition rate (%) [11, 20]: 73.6%
Tumor weight (g, X ± S.D.) [11, 20]: 0.720 ± 0.492 g
Final body weight change (%) ([11]; HCT116 tumors more than 600 mm^3 after irinotecan 100 mg/kg qw×2): −10.7%
T/C (%) [12]: 12.3%
Tumor inhibition rate (%) [12]: 91.1%
Final body weight change (%) ([12]; nude mouse): 0.0%
T/C (%) [13]: 0.6%
Tumor inhibition rate (%) [13]: 99.7%
Final body weight change (%) ([13]; nude mouse): −4.6%
Relative volume RTV (X ± S.D.) [14, 21]: 0.28 ± 0.03
T/C (%) [14, 21]: 7.7%
Tumor inhibition rate (%) [14, 21]: 94.2%
Tumor weight (g, X ± S.D.) [14, 21]: 0.174 ± 0.164 g
Final body weight change (%) ([14]; BxPC-3 tumors more than 600 mm^3 after irinotecan 100 mg/kg i.p. qw × 2): −0.3%
Relative volume RTV (X ± S.D.) [15]: 0.11 ± 0.02
T/C (%) [15]: 1.5%
Tumor inhibition rate (%) [15]: 98.9%
Tumor weight (g, X ± S.D.) [15]: 0.011 ± 0.005 g
Final body weight change (%) ([15]; nude mouse): 4.1%
IC50 ([16]; Adding βGU): 10 nM
IC50 ([16]; No βGU): 600 nM
IC50 ([17]; Adding βGU): 5.2 nM
IC50 ([17]; No βGU): 147 nM
IC50 ([18]; Adding βGU): 33 nM
IC50 ([18]; No βGU): 514 nM
IC50 ([19]; Adding βGU): 6.8 nM
IC50 ([19]; No βGU): 70 nM
